Data as given in patent publication US11198713B2, “Agents modulating beta-catenin functions and methods thereof” (FOG PHARMACEUTICALS, INC., priority 2017, dated 2021).
Converted amounts (≈) assume the structure as drawn. Read-outs that look alike come from different tables or passages of the source. Numbered stars: 1 amine (or outer) side, 2 acyl side, 3 side chain; on linkers, the order of the positions; unused ones are H or OH. Bridge positions count the residues as written; N and C are the ends. Square brackets hold non-standard residues; d marks the D form. Peptide text beside a SMILES is read from it. X8 = CN(CC=[*:3])CCC[C@](C)(N[*:1])C(=O)[*:2]; X6 = CN(CC=[*:3])CC[C@](C)(N[*:1])C(=O)[*:2]; X4 = O=C([C@]1(N[*:1])CCN(CC=[*:3])C1)[*:2]; X5 = C[C@](CCCCCC=[*:3])(N[*:1])C(=O)[*:2]; X7 = C[C@](CCCCC=[*:3])(N[*:1])C(=O)[*:2]; X9 = C[C@](CCC=[*:3])(N[*:1])C(=O)[*:2]; R8 = C=CCCCCCC[C@@](C)(N)C(=O)O; R5 = C=CCCC[C@@](C)(N)C(=O)O

What was measured:
[1] = molecular target: T1, full-length beta-catenin (Axin site) (Homo sapiens, UniProt P35222); assay: Competition fluorescence polarization assay (Axin site probe); assay type: binding; conditions: competition fluorescence polarization, Table 2; read-out: in vitro FP EC50
T1 construct: 15 nM full-length beta-catenin, 20 nM FITC labeled peptide in buffer
T1 sequence (P35222 1-781): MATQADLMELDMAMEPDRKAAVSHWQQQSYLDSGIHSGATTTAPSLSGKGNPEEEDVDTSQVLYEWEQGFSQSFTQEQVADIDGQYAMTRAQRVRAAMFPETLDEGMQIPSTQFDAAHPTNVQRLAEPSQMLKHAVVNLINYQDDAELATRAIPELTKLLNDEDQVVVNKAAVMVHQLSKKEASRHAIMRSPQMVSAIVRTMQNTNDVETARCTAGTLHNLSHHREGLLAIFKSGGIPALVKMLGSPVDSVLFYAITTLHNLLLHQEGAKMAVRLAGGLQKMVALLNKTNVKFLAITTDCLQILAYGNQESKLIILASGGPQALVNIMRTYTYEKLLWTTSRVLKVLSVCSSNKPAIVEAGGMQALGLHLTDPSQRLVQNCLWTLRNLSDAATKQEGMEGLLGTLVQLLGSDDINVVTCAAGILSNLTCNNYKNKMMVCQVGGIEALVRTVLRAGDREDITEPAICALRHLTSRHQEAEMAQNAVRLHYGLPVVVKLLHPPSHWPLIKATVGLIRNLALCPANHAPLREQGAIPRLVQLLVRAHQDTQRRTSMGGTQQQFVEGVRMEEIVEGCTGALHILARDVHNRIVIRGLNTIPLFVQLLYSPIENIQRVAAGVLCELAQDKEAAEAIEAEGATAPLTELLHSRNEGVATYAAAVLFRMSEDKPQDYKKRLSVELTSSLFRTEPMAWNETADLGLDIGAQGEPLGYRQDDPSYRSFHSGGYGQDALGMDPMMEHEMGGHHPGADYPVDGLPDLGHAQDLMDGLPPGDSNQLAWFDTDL
Summary of the method: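 Competition FP: 15 nM full-length β-catenin pre-incubated 5 min with 20 nM FITC-labelled stapled Axin-site peptide, then titrated peptide added (3-fold series from 5 μM) for 15 min in the dark. Buffer 50 mM Tris pH 8.0, 250 mM NaCl, 2% glycerol, 0.5 mM EDTA; duplicate reads.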

[2] = Solubility in DPBS (A280 of supernatant); assay type: physicochemical; conditions: DPBS
Description: Suitable assays for assessing solubility are widely known in the art and can be utilized in accordance with the present disclosure. In some embodiments, in an exemplary protocol, dried peptide was reconstituted in DPBS (DPBS, 1×, cell culture grade, Sigma D8537) in triplicate, vortexed, sonicated and then centrifuged. Absorbance of the supernatant was measured at A280 (Nanodrop 2000) and the concentration was determined using the extinction coefficient for tryptophan. Exemplary solubility data are presented in, e.g., Table 2.

[3] = Table 3 Part B, amino-stapled product, read-out: Solubility in DPBS

Structure (SMILES)	EC50 [1] [µM]	Solubility in DPBS ([2]; Table 3 Part A)	solubility ([2]; Table 2, read-out: Solubility) [µM]	solubility [2, 3] [µM]	solubility ([2]; Table 3 Part A, read-out: Solubility in DPBS) [µM]
CC[C@H](C)[C@@H]1NC(=O)[C@H](Cc2c[nH]cn2)NC(=O)[C@H](C)NC(=O)[C@H](CC(=O)O)NC(=O)[C@H](CC(C)C)NC(=O)[C@H]([C@@H](C)CC)NC(=O)[C@](C)(NC(=O)[C@H](C)NC(C)=O)CCCC=CCOC(=O)N(C)CCC[C@@](C)(C(=O)N[C@@H](CCCNC(=N)N)C(=O)N[C@H](C(=O)N[C@@H](Cc2c[nH]c3ccccc23)C(N)=O)C(C)C)NC1=O (single isomer, unassigned) [FP0510c Isomer 1, Ac-A-R5-I-L-D-A-H-I-MH-R-V-W-NH2]	< 0.1	65 (Isomer 1) μM			
CC[C@H](C)[C@@H]1NC(=O)[C@H](Cc2c[nH]cn2)NC(=O)[C@H](C)NC(=O)[C@H](CC(=O)O)NC(=O)[C@H](CC(C)C)NC(=O)[C@H]([C@@H](C)CC)NC(=O)[C@](C)(NC(=O)[C@H](C)NC(C)=O)CCCC=CCOC(=O)N(C)CCC[C@@](C)(C(=O)N[C@@H](CCCNC(=N)N)C(=O)N[C@H](C(=O)N[C@@H](Cc2c[nH]c3ccccc23)C(N)=O)C(C)C)NC1=O (single isomer, unassigned) [FP0510c Isomer 2, Ac-A-R5-I-L-D-A-H-I-MH-R-V-W-NH2]	< 0.1	31 (Isomer 2) μM			
CC[C@H](C)[C@@H]1NC(=O)[C@H](Cc2c[nH]cn2)NC(=O)[C@H](C)NC(=O)[C@H](CC(=O)O)NC(=O)[C@H](CC(C)C)NC(=O)[C@H]([C@@H](C)CC)NC(=O)[C@](C)(NC(=O)[C@H](C)NC(C)=O)CCCCC=CCOC(=O)N(C)CCC[C@@](C)(C(=O)N[C@@H](CCCNC(=N)N)C(=O)N[C@H](C(=O)N[C@@H](Cc2c[nH]c3ccccc23)C(N)=O)C(C)C)NC1=O (single isomer, unassigned) [FP0511c Isomer 1, Ac-A-R6-I-L-D-A-H-I-MH-R-V-W-NH2]	< 0.1	49 (Isomer 1) μM			
CC[C@H](C)[C@@H]1NC(=O)[C@H](Cc2c[nH]cn2)NC(=O)[C@H](C)NC(=O)[C@H](CC(=O)O)NC(=O)[C@H](CC(C)C)NC(=O)[C@H]([C@@H](C)CC)NC(=O)[C@](C)(NC(=O)[C@H](C)NC(C)=O)CCCCC=CCOC(=O)N(C)CCC[C@@](C)(C(=O)N[C@@H](CCCNC(=N)N)C(=O)N[C@H](C(=O)N[C@@H](Cc2c[nH]c3ccccc23)C(N)=O)C(C)C)NC1=O (single isomer, unassigned) [FP0511c Isomer 2, Ac-A-R6-I-L-D-A-H-I-MH-R-V-W-NH2]	< 0.1	24 (Isomer 2) μM			
CC[C@H](C)[C@@H]1NC(=O)[C@H](Cc2c[nH]cn2)NC(=O)[C@H](C)NC(=O)[C@H](CC(=O)O)NC(=O)[C@H](CC(C)C)NC(=O)[C@H]([C@@H](C)CC)NC(=O)[C@](C)(NC(=O)[C@H](C)NC(C)=O)CCCCCCC=CCN2CC[C@@](C(=O)N[C@@H](CCCNC(=N)N)C(=O)N[C@H](C(=O)N[C@@H](Cc3c[nH]c4ccccc34)C(N)=O)C(C)C)(C2)NC1=O [FP0217a, Ac-A-R8-I-L-D-A-H-I-MB-R-V-W-NH2] (Ac-A[R8]ILDAHI[X4]RVW-NH2; staple 2-9)	> 5		111 (≈ 171 µg/mL)	111 (≈ 171 µg/mL)	
CC[C@H](C)[C@@H]1NC(=O)[C@H](Cc2c[nH]cn2)NC(=O)[C@H](C)NC(=O)[C@H](CC(=O)O)NC(=O)[C@H](CC(C)C)NC(=O)[C@H]([C@@H](C)CC)NC(=O)[C@](C)(NC(=O)[C@H](C)NC(=O)CCN)CCCCCCC=CCOC(=O)N2CC[C@@](C(=O)N[C@@H](CCCNC(=N)N)C(=O)N[C@H](C(=O)N[C@@H](Cc3c[nH]c4ccccc34)C(N)=O)C(C)C)(C2)NC1=O [FP0217c_bAfree, bA-A-R8-I-L-D-A-H-I-MB-R-V-W-NH2]	< 0.1		155 (≈ 250 µg/mL)		
CC[C@H](C)[C@@H]1NC(=O)[C@H](Cc2c[nH]cn2)NC(=O)[C@H](C)NC(=O)[C@H](CC(=O)O)NC(=O)[C@H](CC(C)C)NC(=O)[C@H]([C@@H](C)CC)NC(=O)[C@](C)(NC(=O)[C@H](C)NC(C)=O)CCCCCCCCCOC(=O)N2CC[C@@](C(=O)N[C@@H](CCCNC(=N)N)C(=O)N[C@H](C(=O)N[C@@H](Cc3c[nH]c4ccccc34)C(N)=O)C(C)C)(C2)NC1=O [FP0217rc, Ac-A-R8-I-L-D-A-H-I-MB-R-V-W-NH2]	< 0.1		26 (≈ 41.2 µg/mL)		
CC[C@H](C)[C@@H]1NC(=O)[C@H](Cc2c[nH]cn2)NC(=O)[C@H](C)NC(=O)[C@H](CC(=O)O)NC(=O)[C@H](CC(C)C)NC(=O)[C@H]([C@@H](C)CC)NC(=O)[C@](C)(NC(C)=O)CCCCCCC=CCOC(=O)N2CC[C@@](C(=O)N[C@@H](CCCNC(=N)N)C(=O)N[C@H](C(=O)N[C@@H](Cc3c[nH]c4ccccc34)C(N)=O)C(C)C)(C2)NC1=O [FP0220c, Ac-R8-I-L-D-A-H-I-MB-R-V-W-NH2]	< 0.1		14 (≈ 21.2 µg/mL)		
CC[C@H](C)[C@@H]1NC(=O)[C@H](Cc2c[nH]cn2)NC(=O)[C@H](C)NC(=O)[C@H](CC(=O)O)NC(=O)[C@H](CC(C)C)NC(=O)[C@H]([C@@H](C)CC)NC(=O)[C@](C)(NC(=O)[C@H](C)NC(C)=O)CCCCCC=CCN(C)CC[C@@](C)(C(=O)N[C@@H](CCCNC(=N)N)C(=O)N[C@H](C(=O)N[C@@H](Cc2c[nH]c3ccccc23)C(N)=O)C(C)C)NC1=O [FP0503a, Ac-A-R7-I-L-D-A-H-I-MF-R-V-W-NH2] (Ac-A[X5]ILDAHI[X6]RVW-NH2; staple 2-9)	0.1 to 0.5		236 (≈ 364 µg/mL)	236 (≈ 364 µg/mL)	
CC[C@H](C)[C@@H]1NC(=O)[C@H](Cc2c[nH]cn2)NC(=O)[C@H](C)NC(=O)[C@H](CC(=O)O)NC(=O)[C@H](CC(C)C)NC(=O)[C@H]([C@@H](C)CC)NC(=O)[C@](C)(NC(=O)[C@H](C)NC(C)=O)CCCCCC=CCOC(=O)N(C)CC[C@@](C)(C(=O)N[C@@H](CCCNC(=N)N)C(=O)N[C@H](C(=O)N[C@@H](Cc2c[nH]c3ccccc23)C(N)=O)C(C)C)NC1=O [FP0503c, Ac-A-R7-I-L-D-A-H-I-MF-R-V-W-NH2]	0.1 to 0.5		35 (≈ 55.5 µg/mL)		35 (≈ 55.5 µg/mL)
CC[C@H](C)[C@@H]1NC(=O)[C@H](Cc2c[nH]cn2)NC(=O)[C@H](C)NC(=O)[C@H](CC(=O)O)NC(=O)[C@H](CC(C)C)NC(=O)[C@H]([C@@H](C)CC)NC(=O)[C@](C)(NC(=O)[C@H](C)NC(C)=O)CCC=CCN(C)CCC[C@@](C)(C(=O)N[C@@H](CCCNC(=N)N)C(=O)N[C@H](C(=O)N[C@@H](Cc2c[nH]c3ccccc23)C(N)=O)C(C)C)NC1=O [FP0509a, Ac-A-R4-I-L-D-A-H-I-MH-R-V-W-NH2] (Ac-A[X9]ILDAHI[X8]RVW-NH2; staple 2-9)	0.5 to 5		192 (≈ 291 µg/mL)	192 (≈ 291 µg/mL)	
CC[C@H](C)[C@@H]1NC(=O)[C@H](Cc2c[nH]cn2)NC(=O)[C@H](C)NC(=O)[C@H](CC(=O)O)NC(=O)[C@H](CC(C)C)NC(=O)[C@H]([C@@H](C)CC)NC(=O)[C@](C)(NC(=O)[C@H](C)NC(C)=O)CCCC=CCN(C)CCC[C@@](C)(C(=O)N[C@@H](CCCNC(=N)N)C(=O)N[C@H](C(=O)N[C@@H](Cc2c[nH]c3ccccc23)C(N)=O)C(C)C)NC1=O [FP0510a, Ac-A-R5-I-L-D-A-H-I-MH-R-V-W-NH2] (Ac-A[R5]ILDAHI[X8]RVW-NH2; staple 2-9)	0.5 to 5		165 (≈ 252 µg/mL)	165 (≈ 252 µg/mL)	
CC[C@H](C)[C@@H]1NC(=O)[C@H](Cc2c[nH]cn2)NC(=O)[C@H](C)NC(=O)[C@H](CC(=O)O)NC(=O)[C@H](CC(C)C)NC(=O)[C@H]([C@@H](C)CC)NC(=O)[C@](C)(NC(=O)[C@H](C)NC(C)=O)CCCCC=CCN(C)CCC[C@@](C)(C(=O)N[C@@H](CCCNC(=N)N)C(=O)N[C@H](C(=O)N[C@@H](Cc2c[nH]c3ccccc23)C(N)=O)C(C)C)NC1=O [FP0511a, Ac-A-R6-I-L-D-A-H-I-MH-R-V-W-NH2] (Ac-A[X7]ILDAHI[X8]RVW-NH2; staple 2-9)	< 0.1		170 (≈ 262 µg/mL)	170 (≈ 262 µg/mL)	
